# Data published in patent US6875743B1, “Cell adhesion inhibitors” (Biogen, Inc., priority 1996, dated 2005).
# Square brackets hold non-standard residues; d marks the D form. Peptide text beside a SMILES is read from it. * marks the point of attachment. 2‑MPUPA = 4-(N′-(2-methylphenyl)urea)phenylacetyl, Cc1ccccc1NC(=O)Nc1ccc(CC(=O)*)cc1; X2 = Cc1ccccc1NC(=O)Nc1ccc(CN*)cc1; Quinaldoyl = O=C(c1ccc2ccccc2n1)*; Tic = O=C(O)[CH]1Cc2ccccc2CN1; PhAc = O=C(Cc1ccccc1)*; Boc = CC(C)(C)OC(=O)*; Bz = O=C(c1ccccc1)*; Ahx = NCCCCCC(=O)O
# B1: Compound 152 (peptide)
# peptide: Ac-FLDV-OH
# B2: Compound 2 (peptide)
# peptide: {3‑methoxy‑4‑(N'-phenylurea)phenylacetyl}-MDVP-OH
# B3: Compound 146 (peptide)
# peptide: {4‑(N'-2-hydroxyphenylurea)phenylacetyl}-MDVP-OH
# B4: Compound 168 (peptide)
# peptide: Quinaldoyl-LDVM-OMe
# SMILES: COC(=O)[C@H](CCSC)NC(=O)[C@@H](NC(=O)[C@H](CC(=O)O)NC(=O)[C@H](CC(C)C)NC(=O)c1ccc2ccccc2n1)C(C)C
# B5: Compound 315 (peptide)
# peptide: {2‑MPUPA}-MDVP-OH
# SMILES: CSCC[C@H](NC(=O)Cc1ccc(NC(=O)Nc2ccccc2C)cc1)C(=O)N[C@@H](CC(=O)O)C(=O)N[C@H](C(=O)N1CCC[C@H]1C(=O)O)C(C)C
# B6: Compound 186 (peptide)
# peptide: Quinaldoyl-LDVM-OH
# SMILES: CSCC[C@H](NC(=O)[C@@H](NC(=O)[C@H](CC(=O)O)NC(=O)[C@H](CC(C)C)NC(=O)c1ccc2ccccc2n1)C(C)C)C(=O)O
# B7: Compound 167 (peptide)
# peptide: Boc-LDVM-OMe
# SMILES: COC(=O)[C@H](CCSC)NC(=O)[C@@H](NC(=O)[C@H](CC(=O)O)NC(=O)[C@H](CC(C)C)NC(=O)OC(C)(C)C)C(C)C
# B8: Compound 202 (peptide)
# peptide: {2‑MPUPA}-K(Ahx)DVP-OH
# SMILES: Cc1ccccc1NC(=O)Nc1ccc(CC(=O)N[C@@H](CCCCNC(=O)CCCCCN)C(=O)N[C@@H](CC(=O)O)C(=O)N[C@H](C(=O)N2CCC[C@H]2C(=O)O)C(C)C)cc1
# B9: Compound 153 (peptide)
# peptide: Bz-FLDV-OH
# SMILES: CC(C)C[C@H](NC(=O)[C@H](Cc1ccccc1)NC(=O)c1ccccc1)C(=O)N[C@@H](CC(=O)O)C(=O)N[C@H](C(=O)O)C(C)C
# Target: T1, VLA4 (Homo sapiens, UniProt P05556+P13612)
# T1 construct: endogenous in cells; host or cells: Ramos cells
# T1 sequence (P13612 34-1032): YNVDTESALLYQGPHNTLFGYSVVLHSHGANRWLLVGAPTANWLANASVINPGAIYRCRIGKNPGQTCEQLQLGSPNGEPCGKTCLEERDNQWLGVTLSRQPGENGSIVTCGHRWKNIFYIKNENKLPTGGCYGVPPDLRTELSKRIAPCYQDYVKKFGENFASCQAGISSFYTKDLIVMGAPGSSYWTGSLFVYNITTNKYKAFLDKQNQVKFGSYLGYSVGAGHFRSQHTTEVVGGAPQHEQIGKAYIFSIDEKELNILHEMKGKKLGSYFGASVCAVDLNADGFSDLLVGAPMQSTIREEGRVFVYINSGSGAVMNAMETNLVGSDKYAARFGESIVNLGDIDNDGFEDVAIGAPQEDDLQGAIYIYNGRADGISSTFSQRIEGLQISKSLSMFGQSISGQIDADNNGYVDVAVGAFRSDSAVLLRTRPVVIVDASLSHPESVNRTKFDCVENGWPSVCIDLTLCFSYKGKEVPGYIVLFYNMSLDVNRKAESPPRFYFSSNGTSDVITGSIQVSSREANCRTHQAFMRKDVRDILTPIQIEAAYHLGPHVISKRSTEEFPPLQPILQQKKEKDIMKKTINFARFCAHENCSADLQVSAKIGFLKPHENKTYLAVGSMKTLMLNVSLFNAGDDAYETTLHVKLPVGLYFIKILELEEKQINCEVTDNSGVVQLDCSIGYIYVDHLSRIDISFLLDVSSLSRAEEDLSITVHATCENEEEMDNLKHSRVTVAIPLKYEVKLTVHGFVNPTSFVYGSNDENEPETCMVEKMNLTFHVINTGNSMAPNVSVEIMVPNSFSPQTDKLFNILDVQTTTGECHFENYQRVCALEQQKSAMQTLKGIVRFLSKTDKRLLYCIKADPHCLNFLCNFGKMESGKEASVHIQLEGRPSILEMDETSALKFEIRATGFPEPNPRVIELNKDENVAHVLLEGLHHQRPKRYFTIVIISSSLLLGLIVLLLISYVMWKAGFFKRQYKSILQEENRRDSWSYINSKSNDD
# T1 sequence (P05556 21-798): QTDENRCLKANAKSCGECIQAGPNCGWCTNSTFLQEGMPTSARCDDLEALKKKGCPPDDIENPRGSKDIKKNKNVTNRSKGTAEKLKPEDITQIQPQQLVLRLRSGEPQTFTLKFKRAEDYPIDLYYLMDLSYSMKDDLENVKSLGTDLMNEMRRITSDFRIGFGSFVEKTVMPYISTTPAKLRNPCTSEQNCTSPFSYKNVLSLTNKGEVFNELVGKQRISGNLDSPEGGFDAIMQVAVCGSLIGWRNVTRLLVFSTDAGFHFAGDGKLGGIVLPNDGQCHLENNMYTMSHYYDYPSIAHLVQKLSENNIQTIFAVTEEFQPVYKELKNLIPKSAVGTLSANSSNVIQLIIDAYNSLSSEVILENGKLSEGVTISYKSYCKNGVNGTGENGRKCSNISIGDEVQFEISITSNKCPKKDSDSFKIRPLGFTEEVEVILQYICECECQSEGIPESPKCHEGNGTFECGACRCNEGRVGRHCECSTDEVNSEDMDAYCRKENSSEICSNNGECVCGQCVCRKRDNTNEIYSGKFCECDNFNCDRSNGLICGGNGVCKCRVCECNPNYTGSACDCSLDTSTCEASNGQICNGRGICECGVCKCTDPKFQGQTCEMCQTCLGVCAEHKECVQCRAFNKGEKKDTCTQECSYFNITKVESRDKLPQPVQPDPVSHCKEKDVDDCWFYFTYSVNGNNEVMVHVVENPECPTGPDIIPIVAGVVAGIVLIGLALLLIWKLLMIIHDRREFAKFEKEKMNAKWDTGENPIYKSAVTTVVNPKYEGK
# Assay: Inhibition of VLA4-dependent adhesion to BSA-CS1
# Format: cell-based
# Conditions: binding of BCECF-labelled Ramos cells to BSA-CS1 coated wells, 2 mM MnCl2; read-out: IC50
row,IC50 [nM],Molecule
1,> 10000,CC(C)C[C@H](NC(=O)c1c2c(nc3ccccc13)CCCC2)C(=O)N[C@@H](CC(=O)O)C(=O)N[C@H](C(=O)O)C(C)C [Compound 391]
2,< 50,Cc1ccccc1NC(=O)Nc1ccc(CC(=O)N[C@@H](CC(C)C)C(=O)N[C@@H](CC(=O)O)C(=O)N[C@@H](CC(=O)O)C(N)=O)cc1 [Compound 230]
3,50 to 10000,COC(=O)[C@@H](CC(C)C)NC(=O)[C@H](CC(=O)O)NC(=O)[C@@H]1CCCN1C(=O)Cc1ccc(NC(=O)Nc2ccccc2C)cc1 [Compound 410]
4,< 50,Cc1ccccc1NC(=O)Nc1ccc(CC(=O)N2CCC[C@H]2C(=O)N[C@@H](CCC(=O)O)C(=O)N[C@H](C(N)=O)C(C)C)cc1 [Compound 313]
5,< 50,CSCC[C@H](NC(=O)Cc1ccc(NC(=O)Nc2ccccc2C)cc1)C(=O)N[C@@H](CCC(=O)O)C(=O)N[C@@H](CC(=O)O)C(N)=O [Compound 308]
6,> 10000,COC(=O)C[C@H](NC(=O)[C@H](CC(C)C)N(C)CCCc1ccccc1)C(=O)N[C@H](C(=O)OC)C(C)C [Compound 112]
7,< 50,CSCC[C@H](NC(=O)[C@H](CC(=O)O)NC(=O)[C@H](CO)NC(=O)Cc1ccc(NC(=O)Nc2ccccc2C)cc1)C(N)=O [Compound 281]
8,> 10000,CNC(=O)C(NC(=O)C(CC(=O)O)NC(=O)C(Cc1ccc(O)cc1)NC(=O)Cc1ccccc1)C(C)C (stereo not drawn) [Compound 129] (PhAc-Tyr-Asp-Val-NHMe; configuration not given here)
9,> 10000,CCCCCCNC(=O)C(NC(=O)C(CC(=O)O)NC(=O)C(CC(C)C)NC(=O)CCc1ccc(O)cc1)C(C)C (stereo not shown) [Compound 119]
10,50 to 10000,CNC(=O)[C@@H](NC(=O)[C@H](CC(=O)O)NC(=O)[C@H](CC(C)C)NC(=O)Cc1ccc(NC(=O)Nc2ccccc2)cc1)C(C)C [Compound 204]
11,> 10000,CC(C)CC(NC(=O)c1cc2ccccc2cn1)C(=O)NC(CC(=O)O)C(=O)NCC1CCCCC1 (stereo not shown) [Compound 11]
12,< 50,Cc1ccccc1NC(=O)Nc1ccc(CC(=O)N2CCC[C@H]2C(=O)N[C@@H](CC(=O)O)C(=O)N[C@@H](CCC(=O)O)C(N)=O)cc1 [Compound 245]
13,< 50,Cc1ccccc1NC(=O)Nc1ccc(CC(=O)N[C@@H](CO)C(=O)N[C@@H](CC(=O)O)C(=O)N[C@@H](CC(=O)O)C(N)=O)cc1 [Compound 275]
14,> 10000,CCC(C)C(NC(=O)C(CC(=O)O)NC(=O)C(NC(=O)C1CCCN1)C(C)C)C(=O)NCc1ccc(NC(=O)Nc2ccccc2C)cc1 (stereo not shown) [Compound 343] (H-PVDI-X2; configuration not given here)
15,> 10000,CC(C)C[C@H](NC(=O)c1cccnc1Sc1ccccc1)C(=O)N[C@@H](CC(=O)O)C(=O)N[C@H](C(=O)O)C(C)C [Compound 373]
16,> 10000,CC(C)CC(NC(=O)C1Cc2ccccc2CN1)C(=O)NC(CC(=O)O)C(=O)O (stereo not drawn) [Compound 23] (H-[Tic]-Leu-Asp-OH; configuration not given here)
17,< 50,Cc1ccccc1NC(=O)Nc1ccc(CC(=O)N[C@@H](CO)C(=O)N[C@@H](CC(=O)O)C(=O)N[C@@H](CC(C)C)C(N)=O)cc1 [Compound 276]
18,< 50,Cc1ccccc1NC(=O)Nc1ccc(CC(=O)N[C@H](CC(C)C)C(=O)N[C@@H](CC(=O)O)C(=O)N[C@H](CC(N)=O)C(N)=O)cc1 [Compound 293]
19,> 10000,CC(C)C[C@H](NC(=O)Cc1cccs1)C(=O)N[C@@H](CC(=O)O)C(=O)N[C@H](C(=O)O)C(C)C [Compound 404]
20,> 10000,CCC(C)C(NC(=O)C(CC(=O)O)NC(=O)C(CC(C)C)NC(=O)Cc1ccccc1)C(=O)NC (stereo not drawn) [Compound 55] (PhAc-Leu-Asp-Ile-NHMe; configuration not given here)
21,< 50,Cc1ccccc1NC(=O)Nc1ccc(CC(=O)N[C@@H](CS)C(=O)N[C@@H](CC(=O)O)C(=O)N[C@H](C(N)=O)C(C)C)cc1 [Compound 274]
22,> 10000,COC(=O)[C@@H](NC(=O)[C@H](CC(=O)O)N1CCC(NC(=O)CCc2ccc(O)cc2)C1=O)C(C)C (stereo partly shown) [Compound 335]
23,< 50,CSCC[C@H](NC(=O)Cc1ccc(NC(=O)Nc2ccccc2C)cc1)C(=O)N[C@@H](CC(=O)O)C(=O)N[C@H](C(N)=O)[C@@H](C)O [Compound 224]
24,< 50,Cc1ccccc1NC(=O)Nc1ccc(CC(=O)N[C@H](C(=O)N[C@@H](CC(=O)O)C(=O)N[C@H](CCC(=O)O)C(N)=O)[C@@H](C)O)cc1 [Compound 260]
25,< 50,Cc1ccccc1NC(=O)Nc1ccc(CC(=O)N[C@@H](CCC(=O)O)C(=O)N[C@@H](CC(=O)O)C(=O)N[C@@H](CC(=O)O)C(N)=O)cc1 [Compound 263]
26,< 50,Cc1ccccc1NC(=O)Nc1ccc(CC(=O)N[C@H](C(=O)N[C@@H](CC(=O)O)C(=O)N[C@@H](CCC(=O)O)C(N)=O)[C@@H](C)O)cc1 [Compound 256]
27,50 to 10000,COC(=O)C1CCCN1C(=O)C(NC(=O)C(CC(=O)O)NC(=O)C(CC(C)C)NC(=O)Cc1ccccc1)C(C)C (stereo not shown) [Compound 35]
28,50 to 10000,CNC(=O)[C@H](CCC(=O)O)NC(=O)[C@@H]1CCCN1C(=O)Cc1ccc(NC(=O)Nc2ccccc2C)cc1 [Compound 413]

# Target: T2, α4β1 integrin, very late antigen-4 (VLA-4) (UniProt P13612 34-1032; P05556 21-798, limits assumed)
# T2 construct: whole, on cells; also called CD49d/CD29
# T2 sequence (P13612 34-1032 limits assumed, chain 1 of 2): as the sequence (P13612 34-1032) above
# T2 sequence (P05556 21-798 limits assumed, chain 2 of 2): as the sequence (P05556 21-798) above
# Assay: inhibition of Ramos cell adhesion to BSA-CS1
# Conditions: not given
# Method: Following labelling, the cells were washed twice in assay buffer (24 mM TRIS, 137 mM NaCl, 2.7 mM KCl, pH 7.4, containing 0.1% BSA and 2 mM glucose) to remove any cations originating from the culture medium. The cells were then resuspended in assay buffer to 4×10⁶ cells/mL and 2 mM MnCl_2 was added to upregulate VLA4 on the surface of the cells.
# Immediately prior to running the assay, we removed the BSA blocking solution from the 96-well plates and washed the wells with 100 μL of assay buffer. We then added to each well 25 μL of test cell adhesion inhibitory compound at 2× the final concentration and 25 μL of the labelled Ramos cells. […] Each concentration of compound was tested in triplicate. The compound and cells are allowed to incubate for 30 minutes at room temperature.
# Percent binding is calculated by the formula: […]
row,IC50 [nM],Molecule
1,> 10000,B1
2,< 50,B2
3,< 50,B3
4,50 to 10000,B4
5,< 50,B5
6,> 10000,B6
7,> 10000,B7
8,50 to 10000,B8
9,> 10000,B9
